Patent US20220397566A1, “GAMMA-SECRETASE STABILIZING COMPOUND SCREENING ASSAY” (VIB VZW, priority 2019, published 2022)

Assays:
NCT = experiment: Cell surface biotinylation internalization assay, NCT; format: cell-based, mouse; conditions: DAPT 1 μM
Experimental: All reagents, except otherwise stated, were kept on ice. Cells (450.000 cells for 1 h kinetic and 300.000 cells for 16 h) were plated on 6-cm dishes. 48 h after plating, cells were placed on ice, washed in PBS (pH 8) and next incubated in PBS (pH 8) supplemented with 0.25 mg/ml sulfo-NHS-SS-Biotin (Pierce) (10 min at 4° C.). Excess of biotin was washed out with PBS and cells were incubated in quench buffer (0.5% BSA, 100 mM Glycine in PBS) for 15 min at 4° C. Cells were then washed with PBS and incubated at 37° C. in complete pre-warmed medium (with or without DAPT 1 μM) for the appropriate time or kept at 4° C. as a control. Endocytosis was quickly stopped by placing the dishes back on ice and washing the cells with ice-cold PBS. Remaining biotin at the cell surface was cleaved off by incubating the cells twice in PBS containing 100 mM 2-sodium-2-mercaptoethanesulfonate (Sigma) as a reducing agent (15 min at 4° C.). […] Total protein was measured and biotinylated proteins were pulled down from equal amounts of extracts using streptavidin Sepharose beads (Pierce) (4° C., overnight on a rotation wheel). […] To evaluate the internalized pool for each protein to total cell surface, the (R37-R0)/NR*100 ratio for each time point were quantified. For the 16 h time point, the R37/NR*100 were quantified for each condition. […]

[1] = biological target: T1, PSEN1/g-secretase complex (Homo sapiens, UniProt P49768); experiment: Relocation of GFP-PSEN1/g-secretase to LAMP1-positive late endosomes (confocal immunofluorescence); format: cell-based, mouse
T1 construct: expressed in transfected cells
Experimental: We now questioned whether g-secretase inhibitors would affect subcellular distribution of g-secretase complexes as well. We made use of mouse embryonic fibroblasts (MEFs) in which both PSEN1 an PSEN2 are knocked-out (dKO), rescued with either EGFP-PSEN1 or EGFP-PSEN2 (FIG. 1A). […] The dKO MEFs were then incubated overnight with N—[N-(3,5-difluorophenacetyl)-L-alanyl]-S-phenylglycine t-butyl ester (DAPT). DAPT is a non-transition state analogue (TSA) g-secretase inhibitor that is widely used (Dovey et al 2001 J Neurochem 76).
All culture media and sera are from ThermoFisher Scientific. Mouse embryonic fibroblasts (MEFs), PSEN1 knock-out (1 ko), PSEN1 and PSEN2 double knock-out (dKO, Herreman et al 2000 Nat Cell Biol 2), rescued 1 ko and dKO cell lines cells were routinely grown in Dulbecco's modified Eagle's medium (DMEM/F12) supplemented with 10% fetal calf serum (FCS). All cell lines were maintained in a humidified chamber with 5% CO2 at 37° C. Primary hippocampal neuron cultures are derived from E18 rat embryos (Esselens et al 2004 J Cell Biol 166). Stable rescued 1 ko and dKO cell lines were generated using replication-defective recombinant retroviral system (pMCSV vector, Clontech) expressing the gene of interest.
Cells were plated on glass coverslips, transfected 24 h later and processed for indirect immunolabeling the next day (Sannerud et al 2011 Proc Natl Acad Sci USA 108). Images were captured on a confocal microscope (Leica TCS SP5 II, Leica Microsystems) connected to an upright microscope, using an oil-immersion plan Apo 60× A/1.40 NA objective lens. Image acquisition was performed with LAS (Leica Microsystems). Images were further processed with ImageJ and PhotoshopCS6 (Adobe, Calif.). ImageJ software with the plugin JACoP (Bolte and Cordelieres 2006 J Microsc 224) was used for signal overlap quantification (Mander's coefficient). Images were acquired with identical settings and regions of interest (ROI) covering whole cells were used for quantification.

EGFP-PSEN1 in LAMP1-positive organelles, Mander's coefficient ([1]; 1 μM, 16 hrs, PSEN1/PSEN2 dKO MEFs rescued with EGFP-PSEN1): threefold increase | increase in ratio of EGFP-PSEN1 fluorescence within LAMP1-positive compartments over total EGFP-PSEN1 ([1]; 1 μM, 16 hrs, dKO MEFs rescued with EGFP-PSEN1): 50% | reversibility of late endosomal relocation after wash-out ([1]; DAPT-containing medium replaced with fresh medium, 16 hrs): fully reversible | dose dependence of PSEN1/g-secretase relocation ([1]; between 1 and 1000 nM): clear dose response | fold increase by which PSEN1/g-secretase relocates ([1]; dose response, normalised to DMSO): almost two-fold
SMILES: C[C@H](NC(=O)Cc1cc(F)cc(F)c1)C(=O)N[C@H](C(=O)OC(C)(C)C)c1ccccc1 [DAPT, N—[N-(3,5-difluorophenacetyl)-L-alanyl]-S-phenylglycine t-butyl ester]
internalized NCT (internalization kinetics) (NCT; 5, 10, 30 and 60 min): did not reveal significant differences in internalized NCT | amount of biotinylated NCT pulled down (NCT; 16 h time point): doubling of the amount of biotinylated NCT | translocation of the PSEN1/g-secretase complex to the late endosomes (Rel MFI) ([1]; 1 μM, FIG. 8): induce a translocation of the PSEN1/g-secretase complex to the late endosomes
